Results on one molecule are retold here after patent publication US12059502B2, “Composition and method for pretreating cancer” (Valcuria AB, priority 2016, dated 2024).

Data set [1] in a line: Reported physicochemical properties of valproic acid. The conditions noted are these: based on reported absorption and solubility values.
The conditions of data set [2]: according to Sigma-Aldrich; cited from earlier work.
For data set [3] the following is noted: cited from earlier work.
Where [4] appears, read: 70 kg person, Gugler and Unruh 1980.
Setting [5] is: systemic disposition PK of the reported 250 mg single dose study.

≈ marks a conversion by molar mass, not a printed value. Read-outs that look alike come from different tables or passages of the source.

For the molecule `CCCC(CCC)C(=O)O` [VPA, Valproic acid], the “biopharmaceutical classification system (BCS) class” value in data set [1] is given as “class I”. Also, in data set [2], the solubility in water is 50 mg/mL (≈ 347 mM). Also, in data set [3] (setting [4]), the CL is 0.61 L/h, the F was 100% and the distribution volume (Vd) (commonly the apparent volume that relates the amount in the body to the concentration in plasma or blood) is recorded as 10.6 L. In addition, the “rate of absorption of released drug, first order (kabs)” value in data set [3] (based on data of Dutta and Reed 2007) was 61 h⁻¹. In data set [3] (oral, Dutta and Zhang, 2004), the “time up to which intestinal absorption was measured by deconvolution” value was “up to 22 hr”. In addition, the “bioavailability (F)” value in data set [3] (oral, immediate release, modified release and extended release formulations) is reported as about 100%. Moreover, in data set [3] (setting [5]), the CL is listed as 0.52 L/h and the V was 7.1 L.
